Results on one molecule are retold here after patent publication US20120114636A1, “LOW MOLECULAR WEIGHT CYCLIN E (LMW-E) AS A BIOMARKER FOR PERSONALIZATION OF CANCER THERAPIES” (The Board of Regents of the University of Texas System, priority 2009, published 2012).

“And” between values parts separate entries of the source, which are not always exact repeats. Equal entries are not always repeated. Where two headings read alike, the source gives them in different places.

Holding throughout (type): cell-based, human
Experiment [1] deals with MCF-7/Ac1 cells. The experiment is described as follows: Cell number of adenovirus-infected cells (LacZ, cyclin EL, T1, T2). The conditions noted are these: for inhibition at 1 µM: Homo sapiens, MCF7, 1 μM letrozole, read-out: inhibition of AD-induced growth. The text has this: LMW cyclin E, but not full-length cyclin E, overexpressing MCF-7/Ac1 cells partially override the letrozole inhibition of AD-induced S-phase entry and AD-induced CDK2 protein levels. Since overexpression of LMW cyclin E deregulates the G1 to S transition, the inventors interrogated the role of full-length and LMW cyclin E in letrozole response. To this end, the inventors examined the sensitivity of cyclin E overexpressing MCF-7/Ac1 cells to the growth inhibitory effect of letrozole using adenoviruses to overexpress full-length and LMW cyclin E (FIGS. 24A-24D). MCF-7/Ac1 cells were cultured in charcoal stripped serum media (CSSM) for 4 days before infecting them with 4000 m.o.i. of either LacZ, full-length cyclin E (cyclin EL) or LMW cyclin E (cyclin E-T1 and cyclin E-T2). Twenty-four hours later, cells were left either untreated, treated with 25 nM AD alone, or treated with 25 nM AD plus 1 μM letrozole for an additional 3 days (FIGS. 24A-24B). Following the treatment, cells were enumerated or subjected to flow cytometry analysis.
MCF-7/Ac1 cells were cultured in IMEM with 10% charcoal-stripped serum medium (CSSM) without phenol red and with 600 μg/ml of G418 for 4 days before plating. Triplicate wells of 6-well plates were then infected with the indicated adenoviruses (at 4000 m.o.i.) 24 hours before drug treatment. Cells were then left untreated (E2W, estrogen withdrawal) or treated with 25 nM AD (AD) or treated with 25 nM AD and 1 μM letrozole (AD+Let) and collected 3 days later for cell number. Cell growth is expressed as the percentage of the cells compared with the control cells (25 nM AD treated cells). […] MCF-7/Ac1 cells were treated as described in A, and collected for flow cytometry analysis. Histograms represent the S-phase fraction expressed as the percentage of the cells in S-phase compared with the control cells (25 nM AD treated cells). […] The same cell lysates as in A and B were subjected to western blot analysis (50 μg of protein) with cyclin E and CDK2 antibodies. The bar graph represents the densitometric values of the phosphorylated CDK2 bands. […] Left, MCF-7/Ac1 cells were cultured in IMEM with 10% charcoal-stripped serum medium (CSSM) without phenol red and with 600 μg/ml of G418 for 4 days before plating. Cells were then infected with the indicated adenoviruses (at 4000 m.o.i.) 24 hours before drug treatment. Cells were then treated with 25 nM AD and 1 μM letrozole and collected 3 days later for cell number. […] Columns, mean of two to three experiments, each in triplicates; bars, S.D.
To directly address this question, MCF-7/Ac1 cells were cultured in charcoal stripped serum media (CSSM) for 4 days before adding medium with no virus or with 4000 m.o.i. of either LacZ, or LMW cyclin E (cyclin E-T1) adenoviruses. 24 hours later, cells were left untreated, treated with 25 nM AD alone, or treated with 25 nM AD plus 1 μM letrozole for 3 days (FIG. 24D). The AD-induced growth of MCF-7/Ac1 cells was inhibited by letrozole by 51% in uninfected cells and by 58% in LacZ infected cells while the growth of cyclin E-T1 infected cells was inhibited by only 20% (FIG. 24D, left).

The test system of experiment [2] is MCF-7/Ac1 cells. The experiment is described as follows: Sequential AD/letrozole then roscovitine treatment: cell number and CDK2 western blot. The conditions noted are these: LMW cyclin E overexpressing cells. As for the experimental part: Medium alone or medium plus DMSO were used as controls. A schematic of the treatment strategy is depicted in FIG. 25A. At the conclusion of the treatment, cells were enumerated and subjected to western blot analysis with CDK2 (total) and phospho-CDK2 antibodies.
Cells were then infected with the indicated adenoviruses (at 4000 m.o.i.) 24 hours before drug treatment.

In experiment [3] the test system is CDK2 protein in MCF-7/Ac1 cells. Description: Western blot of CDK2 protein levels in adenovirus-infected cells. The conditions noted are these: letrozole. Here is the method:
Western blot analysis. Cell lysates were prepared and subjected to western blot analysis as described previously (Akli et al., 2004). Briefly, 50 μg of protein were subjected to electrophoresis on SDS-PAGE and transferred to Immobilon P overnight at 4° C. at […] constant voltage. The blots were blocked overnight at 4° C. in BLOTTO [5% nonfat dried milk in 20 mM Tris, 137 mM NaCl, and 0.05% Tween (pH 7.6)]. After being washed, the blots were incubated in primary antibodies for 3 h. Primary antibodies used were cyclin E (HE-12; Santa Cruz Biotechnology), p21 (0P64; Oncogene Research Products, Boston, Mass.), p27 (K25020; BD Biosciences-Transduction Laboratories, Lexington, Ky.), cyclin-dependent kinase 2 (CDK2; Transduction Laboratories), and actin (Chemicon International, Inc., Temecula, Calif.). Blots were then incubated with goat anti-mouse or anti-rabbit immunoglobulin-horseradish peroxidase conjugate at a dilution of 1:5000 in BLOTTO for 1 h and finally washed and developed by using the Renaissance chemiluminescence system as directed by the manufacturer (Perkin-Elmer Life Sciences, Inc., Boston, Mass.). Western blots were quantitated by densitometric analysis using IPLab Gel software (Scientific Image Processing, Vienna, Va.). Densitometric values of actin were used to standardize for equal protein loading. These values were introduced into the software Graph-Pad Prism version 4.0 (GraphPad Software, Inc., San Diego, Calif.) for statistical analysis.
MCF-7/Ac1 cells were cultured in IMEM with 10% charcoal-stripped serum medium (CSSM) without phenol red and with 600 μg/ml of G418 for 4 days before plating. […] Cells were then infected with the indicated adenoviruses (at 4000 m.o.i.) 24 hours before drug treatment.
On the technique in general: In western blotting, separated proteins are transferred to a membrane and probed.

`N#Cc1ccc(C(c2ccc(C#N)cc2)n2cncn2)cc1` [letrozole]: in the experiment with MCF-7/Ac1 cells [1] (1 μM letrozole, cyclin EL, T1, and T2 infected cells, FIG. 24A), the “inhibition of AD-induced growth” value was “no significant growth inhibition”. Also, the inhibition – broadly, the drop in the measured response relative to a control, in per cent – at 1 µM with MCF-7/Ac1 cells [1] (LacZ infected cells, FIG. 24A) was 56.1%; with MCF-7/Ac1 cells [1] (LacZ infected cells, FIG. 24D) it was 58%; in the experiment on MCF-7/Ac1 cells [1] (cyclin E-T1 infected cells, FIG. 24D) it was 20%; in the experiment with MCF-7/Ac1 cells [1] (uninfected cells, FIG. 24A) it was 40.8%; in the experiment with MCF-7/Ac1 cells [1] (uninfected cells, FIG. 24D) it was 51%. Besides, the “increase in AD-induced proliferation not prevented by letrozole” value in the experiment with MCF-7/Ac1 cells [2] (AD plus 1 μM letrozole) was 2.5 fold and 2.8 fold. Also, in the experiment with MCF-7/Ac1 cells [2] (AD plus letrozole), the “phosphorylated/unphosphorylated CDK2 ratio” value is 134-234%. Besides, the CDK2 protein levels entry in experiment [3] (LMW cyclin E (T1, T2) overexpressing cells) was “did not drop following letrozole treatment”. In experiment [3] (cyclin EL overexpressing cells), the “total CDK2 protein levels, percent of the level in untreated, uninfected cells” value was found to be 50%. In addition, the “total CDK2 protein levels, percent of the level in uninfected cells” value in experiment [3] (uninfected and LacZ infected cells) worked out at 10%.
